What follows are molecules tested against T1, FimH (Escherichia coli, UniProt Q1R2J4). Settings: concentration reducing bacterial agglutination of guinea pig red blood cells by greater than 90%; UTI89 bacteria.
T1 construct: endogenous in cells; host or cells: E. coli UTI89 whole bacteria, agglutinating guinea pig red blood cells
Format: cell-based
Description: Hemagglutination Inhibition Assay (HAI)
The hemagglutination inhibition (HAI) assay was performed with UTI89 bacteria and guinea pig red blood cells, as previously described (S. J. Hultgren, W. R. Schwan, A. J. Schaeffer, J. L. Duncan Infect. Immun. 1986, 54, 613-620 and Jarvis, C.; Han, Z.; Kalas, V.; Klein, R.; Pinkner, J. S.; Ford, B.; Binkley, J.; Cusumano, C. K.; Cusumano, Z.; Mydock-McGrane, L.; Hultgren, S. J.; Janetka, J. W., ChemMedChem 2016, 11, 367-373).
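Further: concentration in nM.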

Row | Structure (SMILES) | HAI titer EC > 90
1 | Cc1cc(-c2cc(F)c(C(C)O)c(F)c2)ccc1C(O)C1OC(CO)C(O)C(O)C1O (mixture of isomers) [Example 95] | “++++” (<50 “++++”)
2 | Cc1cc(-c2cc(F)c(C(C)O)c(F)c2)ccc1[C@@H](O)[C@H]1O[C@H](CO)[C@@H](O)[C@H](O)[C@@H]1O (single isomer, unassigned) [Example 107] | “++++” (<50 “++++”)
3 | Cc1cc(-c2cc(F)c(C(C)O)c(F)c2)ccc1[C@@H](O)[C@H]1O[C@H](CO)[C@@H](O)[C@H](O)[C@@H]1O (single isomer, unassigned) [Example 108] | “++++” (<50 “++++”)
4 | Cc1cc(-c2cc(Cl)ccc2OC(C)C)ccc1[C@@H](O)[C@H]1O[C@H](CO)[C@@H](O)[C@H](O)[C@@H]1O [Example 10] | “++++” (<50 “++++”)
5 | Cc1cc(-c2cc(C)c(Cl)c(C)c2)ccc1[C@@H](O)[C@H]1O[C@H](CO)[C@@H](O)[C@H](O)[C@@H]1O [Example 12] | “+++” (50-200 “+++”)
6 | Cc1cc(-c2ccc([C@@H](O)[C@H]3O[C@H](CO)[C@@H](O)[C@H](O)[C@@H]3O)c(C)c2)cc(C(C)(C)C)c1 [Example 14] | “+++” (50-200 “+++”)
7 | Cc1cc(-c2cc(F)ccc2F)ccc1[C@@H](O)[C@H]1O[C@H](CO)[C@@H](O)[C@H](O)[C@@H]1O [Example 17] | “+++” (50-200 “+++”)
8 | Cc1cc(-c2cccc(F)c2F)ccc1[C@@H](O)[C@H]1O[C@H](CO)[C@@H](O)[C@H](O)[C@@H]1O [Example 18] | “+++” (50-200 “+++”)
9 | Cc1cc(-c2cc(Cl)c(Cl)cc2O)ccc1[C@@H](O)[C@H]1O[C@H](CO)[C@@H](O)[C@H](O)[C@@H]1O [Example 19] | “++++” (<50 “++++”)
10 | COc1cc(Cl)c(Cl)cc1-c1ccc([C@@H](O)[C@H]2O[C@H](CO)[C@@H](O)[C@H](O)[C@@H]2O)c(C)c1 [Example 20] | “++++” (<50 “++++”)
11 | Cc1cc(-c2cc(F)cc(Cl)c2)ccc1[C@@H](O)[C@H]1O[C@H](CO)[C@@H](O)[C@H](O)[C@@H]1O [Example 22] | “++++” (<50 “++++”)
12 | Cc1cc(-c2ccc(F)c(F)c2)ccc1[C@@H](O)[C@H]1O[C@H](CO)[C@@H](O)[C@H](O)[C@@H]1O [Example 23] | “+++” (50-200 “+++”)
13 | Cc1cc(-c2ccc(F)c(C(F)(F)F)c2)ccc1[C@@H](O)[C@H]1O[C@H](CO)[C@@H](O)[C@H](O)[C@@H]1O [Example 25] | “++++” (<50 “++++”)
14 | Cc1cc(-c2cc(Cl)cc(C(F)(F)F)c2)ccc1[C@@H](O)[C@H]1O[C@H](CO)[C@@H](O)[C@H](O)[C@@H]1O [Example 26] | “++++” (<50 “++++”)
15 | COc1cc(-c2ccc([C@@H](O)[C@H]3O[C@H](CO)[C@@H](O)[C@H](O)[C@@H]3O)c(C)c2)ccc1F [Example 27] | “+++” (50-200 “+++”)
16 | Cc1cc(-c2ccc(OC(F)(F)F)c(F)c2)ccc1[C@@H](O)[C@H]1O[C@H](CO)[C@@H](O)[C@H](O)[C@@H]1O [Example 28] | “+” (>1000 “+”)
17 | OC[C@H]1O[C@H]([C@H](O)c2ccc(-c3cc(F)cc(F)c3)cc2Cl)[C@@H](O)[C@@H](O)[C@@H]1O [Example 29] | “+++” (50-200 “+++”)
18 | Cc1cc(-c2ccc(Cl)c(C(F)(F)F)c2)ccc1[C@@H](O)[C@H]1O[C@H](CO)[C@@H](O)[C@H](O)[C@@H]1O [Example 30] | “++++” (<50 “++++”)

Row | Structure (SMILES) | HAI titer EC > 90
19 | Cc1cc(-c2ccc(F)c(OC(F)(F)F)c2)ccc1[C@@H](O)[C@H]1O[C@H](CO)[C@@H](O)[C@H](O)[C@@H]1O [Example 31] | “+++” (50-200 “+++”)
20 | COc1cc(OC)cc(-c2ccc([C@@H](O)[C@H]3O[C@H](CO)[C@@H](O)[C@H](O)[C@@H]3O)c(C)c2)c1 [Example 33] | “++++” (<50 “++++”)
21 | COc1cc(-c2ccc([C@@H](O)[C@H]3O[C@H](CO)[C@@H](O)[C@H](O)[C@@H]3O)c(C)c2)cc(F)c1F [Example 34] | “++++” (<50 “++++”)
22 | COc1c(F)cc(-c2ccc([C@@H](O)[C@H]3O[C@H](CO)[C@@H](O)[C@H](O)[C@@H]3O)c(C)c2)cc1F [Example 35] | “++++” (<50 “++++”)
23 | Cc1cc(-c2cc(F)cc(OC(F)(F)F)c2)ccc1[C@@H](O)[C@H]1O[C@H](CO)[C@@H](O)[C@H](O)[C@@H]1O [Example 36] | “++++” (<50 “++++”)
24 | Cc1cc(-c2cc(F)cc(F)c2)cc(F)c1[C@@H](O)[C@H]1O[C@H](CO)[C@@H](O)[C@H](O)[C@@H]1O [Example 37] | “++++” (<50 “++++”)
25 | Cc1cc(-c2ccc(C3CC3)c(F)c2)ccc1[C@@H](O)[C@H]1O[C@H](CO)[C@@H](O)[C@H](O)[C@@H]1O [Example 38] | “+++” (50-200 “+++”)
26 | COc1cc(-c2ccc([C@@H](O)[C@H]3O[C@H](CO)[C@@H](O)[C@H](O)[C@@H]3O)c(C)c2)cc(OC)c1F [Example 39] | “++++” (<50 “++++”)
27 | Cc1cc(-c2ccc([C@@H](O)[C@H]3O[C@H](CO)[C@@H](O)[C@H](O)[C@@H]3O)c(C)c2)c(F)cc1Cl [Example 40] | “+++” (50-200 “+++”)
28 | Cc1cc(-c2ccc(C(F)(F)F)c(Cl)c2)ccc1[C@@H](O)[C@H]1O[C@H](CO)[C@@H](O)[C@H](O)[C@@H]1O [Example 41] | “++++” (<50 “++++”)
29 | Cc1cc(-c2ccc(C(F)(F)F)cc2F)ccc1[C@@H](O)[C@H]1O[C@H](CO)[C@@H](O)[C@H](O)[C@@H]1O [Example 42] | “+++” (50-200 “+++”)
30 | Cc1cc(-c2cc(OC(F)(F)F)ccc2F)ccc1[C@@H](O)[C@H]1O[C@H](CO)[C@@H](O)[C@H](O)[C@@H]1O [Example 43] | “+++” (50-200 “+++”)
31 | Cc1cc(-c2cc(Cl)ccc2F)ccc1[C@@H](O)[C@H]1O[C@H](CO)[C@@H](O)[C@H](O)[C@@H]1O [Example 44] | “+++” (50-200 “+++”)
32 | Cc1cc(F)c(-c2ccc([C@@H](O)[C@H]3O[C@H](CO)[C@@H](O)[C@H](O)[C@@H]3O)c(C)c2)cc1F [Example 45] | “++++” (<50 “++++”)
33 | Cc1cc(-c2cc(C(F)(F)F)ccc2F)ccc1[C@@H](O)[C@H]1O[C@H](CO)[C@@H](O)[C@H](O)[C@@H]1O [Example 46] | “+++” (50-200 “+++”)
34 | Cc1cc(-c2cc(F)c(Cl)cc2F)ccc1[C@@H](O)[C@H]1O[C@H](CO)[C@@H](O)[C@H](O)[C@@H]1O [Example 47] | “++++” (<50 “++++”)
35 | Cc1cc(-c2cc(Cl)c(F)cc2F)ccc1[C@@H](O)[C@H]1O[C@H](CO)[C@@H](O)[C@H](O)[C@@H]1O [Example 48] | “+++” (50-200 “+++”)
36 | Cc1cc(-c2ccc(C(F)(F)F)c(F)c2F)ccc1[C@@H](O)[C@H]1O[C@H](CO)[C@@H](O)[C@H](O)[C@@H]1O [Example 49] | “+++” (50-200 “+++”)
